Reference: patent publication US10391201B2, “Gene therapy” (Ospedale San Raffaele S.r.l., priority 2014, dated 2019)

Tests used:
Assay type in all cases: cell-based, human
IFNα = IFNα ELISA on supernatants of transduced CB-derived HSPC; conditions: CB-derived HSPC 24 hours after exposure (FIG. 26)
Experimental: IFNα levels in supernatants from HSPC transduced in the presence of the agents. […] IFNα concentration was assessed using the VeriKine™ Human IFN Alpha ELISA Kit. HUVEC-10 cells were used as a positive control and the medium in which the cells were cultured as the negative control. Data represent the mean±SEM of three independent experiments.
To assess the secretion of human IFNα upon transduction of CB-derived HSPCs in the presence of the different compounds, supernatants from transduced cells were harvested 24 hours post-transduction and the IFNα concentration was assessed using the VeriKine™ Human IFN Alpha ELISA Kit (PBL interferon source, #41100) according to manufacturer's instructions.

CD4+ T cells = assay: SINLV-GFP lentiviral transduction of activated CD4+ T cells
Experimental: (§1) CD4^+ T cells were activated in RPMI, supplemented with 10% FBS, penicillin (100 IU/mL), streptomycin (100 μg/mL), 2% glutamine, phytohaemagglutanin (PHA) (2 μg/mL, Roche) and IL-2 (300 IU/mL, Novartis) for three days and maintained in RPMI supplemented with 10% FBS, penicillin (100 IU/mL), streptomycin (100 μg/mL), 2% glutamine and IL-2 (300 UI/mL). Monocyte-derived macrophages (MDM) were differentiated from isolated CD14^+ monocytes in DMEM supplemented with 10% FBS, penicillin (100 IU/mL), streptomycin (100 μg/mL), 2% glutamine and 5% human serum AB (Lonza) for seven days.
(§2) Human CB and BM-derived haematopoietic stem/progenitor cells (HSPC) were cultured in serum-free StemSpan medium (StemCell Technologies) supplemented with 100 ng/mL recombinant human stem cell factor (rhSCF), 20 ng/mL recombinant human thrombopoietin (rhTPO), 100 ng/mL recombinant human Flt3 ligand (rhFlt3) and 20 ng/mL recombinant human IL6 (rhIL6) (all from Peprotech) 16 to 24 hours prior to transduction. […] After transduction, cells were washed and maintained serum-free StemSpan supplemented with cytokines as above until the reading of GFP-positive (GFP+) cells by FACS. […]
(§3) GFP expression in transduced cells was measured 5-7 days post-transduction. […]

[1] = test system: monocyte-derived macrophages (MDM); assay: SINLV-GFP lentiviral transduction of monocyte-derived macrophages; conditions: MOI 1, 10 μM CsA or 10 μg/mL rapamycin, FACS 5 days
Experimental: as §1, §2, §3

CB-derived CD34+ cells = assay: γ-retroviral SINRV-GFP transduction of CB-derived CD34+ cells; conditions: CB-derived HSPC; MOI of 10 (FIG. 24)
BM-derived CD34+ cells = assay: γ-retroviral SINRV-GFP transduction of BM-derived CD34+ cells; conditions: BM-derived HSPC; MOI of 10 (FIG. 24)
Experimental: A, B. The percentage of GFP+ cells was evaluated by FACS five days after transduction. Data represent the mean±SEM of four independent experiments.
Third generation lentivirus (LV) stocks were prepared, concentrated and titred as previously described (Dull, T. et al. (1998) J. Virol. 72: 8463-71; Follenzi, A. et al. (2000) Nat. Genetics 25: 217-22). […]. Bald vector, a normal LV produced by omitting the Env-encoding plasmid during vector production, was produced as a negative control. During vector production, the Env construct was substituted by pcDNA3.1 (Invitrogen Inc.). […]
as §2

For CO[C@H]1C[C@@H]2CC[C@@H](C)[C@@](O)(O2)C(=O)C(=O)N2CCCC[C@H]2C(=O)O[C@H]([C@H](C)C[C@@H]2CC[C@@H](O)[C@H](OC)C2)CC(=O)[C@H](C)/C=C(\C)[C@@H](O)[C@@H](OC)C(=O)[C@H](C)C[C@H](C)/C=C/C=C/C=C/1C [rapamycin, Rapamycin], the IFNα secretion (IFNα) was “no detectable levels”, the “impact on transduction among the different CA mutants” value (CD4+ T cells; CA mutant SINLVs MOI 1) was “did not vary” and the “impact on LV transduction efficiency (in words)” value (CD4+ T cells; MOI 1, 20 μm FK506 or 10 μg/mL rapamycin) was “a similar trend was observed”. For the same compound, the “decrease in GFP+ cells (transduction)” value [1] was 2.8 fold, the “percentage of GFP+ cells with γ-retroviral SINRV” value (CB-derived CD34+ cells) was “neither compound was able to significantly increase” and the “percentage of GFP+ cells with γ-retroviral SINRV” value (BM-derived CD34+ cells) was “neither compound was able to significantly increase”.
